Measurements as given in patent EP1202120A2, “Charge transport compound, elctrophotographic organophotoreceptor comprising the same, and electrographic imaging apparatus and method” (SAMSUNG ELECTRONICS CO., LTD., priority 2000, dated 2002).
Entries after “also recorded” stand apart in the source; their conditions may differ.

Key:
[1] = Thermal transitions by differential scanning calorimetry (glass transition temperature); type: physicochemical; conditions: DSC; for Tg without binder: neat sample; for Tg with 50% PCZ: mixture with Polycarbonate Z binder
Protocol: Thermal transition data for various charge transport compounds was collected using a TA Instruments Model 2929 Differential Scanning Calorimeter (New Castle, DE) equipped with a DSC cooling system (-70°C minimum temperature limit), and dry helium and nitrogen exchange gases. The calorimeter ran on a Thermal Analyst 2100 workstation with version 8.10B software. An empty aluminum pall was used as the reference.
Samples were tested both neat and as a mixture with Polycarbonate Z ("PCZ"). The neat samples were prepared by placing 4.0 to 8.0 mg of neat charge transport material into an aluminum sample pan and crimping the upper lid to produce a hermetically sealed sample for DSC testing. The results were normalized on a unit mass basis.
The Polycarbonate Z-mixed samples were prepared by filling the bottom portion of the aluminum sample pan with a 15-20% solid solution of the charge transport material in Polycarbonate Z, followed by air-drying overnight. Each air-dried sample was then placed in a convection oven at 50-55°C for 24-48 hours to fully remove the solvent, after which the upper sample lid was crimped on to produce a sealed sample for DSC testing. Each sample size was in the range of 7.0-15.0 mg. The results were normalized on a unit mass basis.
Each sample was subjected to the following protocol to evaluate its thermal transition behavior: • 1. Equilibrate at 0°C (Default--Nitrogen Heat Exchange Gas); • 2. Isothermal for 5 min.; • 3. External Event: Nitrogen Heat Exchange Gas; • 4. Ramp 10.0°C/min to a temperature 30°C above the melting point of the charge transport material; • 5. External Event: Helium Heat Exchange Gas; • 6. Isothermal for 5 min.; • 7. Ramp 10.0°C/min to 0°C; • 8. External Event: Nitrogen Heat Exchange Gas; • 9. Isothermal for 5 min.; • 10. Ramp 10.0°C/min to a temperature 40°C above the melting point of the charge transport material; • 11. External Event: Helium Heat Exchange Gas; • 12. Isothermal for 5 min.; • 13. Ramp 10.0°C/min to 0°C; • 14. External Event: Nitrogen Heat Exchange Gas; • 15. Isothermal for 5 min; • 16. Ramp 10.0°C/min to 275°C.
The first cycle (steps 1-7) is used to (a) remove the thermal history of the sample, (b) obtain the melting transition for crystalline charge transport materials, and (c) obtain a homogeneous charge transport material/Polycarbonate Z mixture in the event the charge transport material is crystallized during sample preparation. A homogeneous mixture can be obtained as long as the charge transport material (molten or casted) is miscible with the Polycarbonate-Z.
The second cycle (steps 8-13) is used to identify the glass transition temperature and the recrystallization or melting transitions of charge transport materials.
The third cycle (steps 14-16) is used to report the final thermal transitions.
All temperatures are reported in °C. The abbreviation "CTM" indicates charge transport compounds. The abbreviation "PCZ" indicates the Polycarbonate Z binder.

[2] = Ionization potential by electron photoemission in air; type: physicochemical; conditions: CTM layer without binder; error ±0.03 eV
Protocol: Samples for ionization potential (Ip) measurements were prepared by dissolving compounds (B), (C), (E), (F), (G), and (H) and Comparative Example A separately in tetrahydrofuran. Each solution was hand-coated on an aluminized polyester substrate that was precision coated with a methylcellulose-based adhesive sub-layer to form a charge transport material (CTM) layer. The role of this sub-layer was to improve adhesion of the CTM layer, to retard crystallization of CTM, and to eliminate the electron photoemission from the Al layer through possible CTM layer defects. No photoemission was detected from the Al layer through the sub-layer at illumination with up to 6.4 eV quantum energy light. In addition, the adhesive sub-layer was conductive enough to avoid charge accumulation on it during measurement. The thickness of both the sub-layer and CTM layer was about 0.4 µm. No binder material was used in the preparation of the samples for Ip measurements. In most cases, the thin CTM layers were in a meta-stable amorphous phase, delaying crystallization for several hours, so that the measurement of the samples was possible.
The ionization potential was measured by the electron photoemission in an air method similar to that described in "Ionization Potential of Organic Pigment Film by Atmospheric Photoelectron Emission Analysis", Electrophotography, 28, No. 4, p. 364. (1989) by E. Miyamoto, Y. Yamaguchi, and M. Yokoyama, which is hereby incorporated by reference. The samples were illuminated with monochromatic light from a quartz monochromator with a deuterium lamp source. The power of the incident light beam was 2-5×10^-8 W. The negative voltage of -300 V was supplied to the sample substrate. The counter-electrode with the 4.5×15 mm^2 slit for illumination was placed at 8 mm distance from the sample surface. The counter-electrode was connected to the input of the BK2-16 type electrometer, working in the open input regime, for the photocurrent measurement. A photocurrent of 10^-15-10^-12 amp was flowed in the circuit under illumination. The photocurrent, I, was strongly dependent on the incident light photon energy hν. The I^0.5=f(hν) dependence was plotted. Usually the dependence of the square root of photocurrent on incident light quantum energy is well described by linear relationship near the threshold [see references "Ionization Potential of Organic Pigment Film by Atmospheric Photoelectron Emission Analysis", Electrophotography, 28, No. 4, p. 364. (1989) by E. Miyamoto, Y. Yamaguchi, and M. Yokoyama; and "Photoemission in Solids", Topics in Applied Physics, 26, 1-103. (1978) by M. Cordona and L. Ley]. The linear part of this dependence was extrapolated to the hν axis, and Ip value was determined as the photon energy at the interception point.

[3] = Solubility testing in tetrahydrofuran at room temperature; conditions: tetrahydrofuran as solvent
Protocol: Solubility testing was performed for individual charge transport compounds at room temperature using tetrahydrofuran as a solvent. The solubility was determined as the percent solids of saturated solution. In general, it is desirable to maximize the solubility value.

SMILES | Tg without binder [1] [°C] | Tg with 50% PCZ [1] [°C] | lp (ionization potential) [2] | Solubility [3]
CCn1c2ccccc2c2cc(C=NN(CCCCN(N=Cc3ccc4c(c3)c3ccccc3n4CC)c3ccccc3)c3ccccc3)ccc21 [D] | 79.1 |  |  | 
CCCCCCCn1c2ccccc2c2cc(C=NN(CCCCCCCCCCN(N=Cc3ccc4c(c3)c3ccccc3n4CCCCCCC)c3ccccc3)c3ccccc3)ccc21 [E] | 29.3 | 56.9 | 5.38 eV | 
CCn1c2ccccc2c2cc(C=NN(CCCCCN(N=Cc3ccc4c(c3)c3ccccc3n4CC)c3ccccc3)c3ccccc3)ccc21 [C] | 84.4 | 102.5 | 5.34 eV | 
CCCCn1c2ccccc2c2cc(/C=N/N(CCCCCCN(/N=C/c3ccc4c(c3)c3ccccc3n4CCCC)c3ccccc3)c3ccccc3)ccc21 [H] |  |  | 5.35, layer with crystal inclusions eV | limited solubility; also recorded: Insoluble
CCn1c2ccccc2c2cc(C=NN(CCCCCCCCCCN(N=Cc3ccc4c(c3)c3ccccc3n4CC)c3ccccc3)c3ccccc3)ccc21 [B] | 46 | 83.7 | 5.44 eV | 
CCCCCCCn1c2ccccc2c2cc(C=NN(CCCCCN(N=Cc3ccc4c(c3)c3ccccc3n4CCCCCCC)c3ccccc3)c3ccccc3)ccc21 [F] | 44.5 | 78.3 | 5.23 eV | 
